This note sets out measurements from ChEMBL document CHEMBL1208720, “N-Benzylsalicylthioamides as novel compounds with promising antimycotic activity” (2010).

Type in all cases: functional
For assay [1], the system named is Pichia kudriavzevii. Put plainly: Antifungal activity against Candida krusei E28 after 24 hrs by broth microdilution assay. Conditions: Pichia kudriavzevii, E28, 24 h. A general note: Broth dilution looks for growth in wells or tubes with falling amounts of substance.
Assay [2] relates to Candida tropicalis. Put plainly: Antifungal activity against Candida tropicalis 159 after 48 hrs by broth microdilution assay. Particulars: Candida tropicalis, 159, 48 h.
In assay [3] the test system is Nakaseomyces glabratus. The assay is described as follows: Antifungal activity against Candida glabrata 20/I after 24 hrs by broth microdilution assay. Particulars: Nakaseomyces glabratus, 20/I, 24 h.
The test system of assay [4] is Pichia kudriavzevii. The assay is described as follows: Antifungal activity against Candida krusei E28 after 48 hrs by broth microdilution assay. Conditions: Pichia kudriavzevii, E28, 48 h.
In assay [5] the test system is Candida albicans. Put plainly: Antifungal activity against Candida albicans ATCC 44859 after 24 hrs by broth microdilution assay. Conditions: Candida albicans, ATCC 44859, 24 h.
Assay [6] deals with Aspergillus fumigatus. The assay is described as follows: Antifungal activity against Aspergillus fumigatus 231 after 48 hrs by broth microdilution assay. Conditions: Aspergillus fumigatus, 231, 48 h.
Assay [7] deals with Trichosporon asahii. The assay is described as follows: Antifungal activity against Trichosporon asahii 1188 after 24 hrs by broth microdilution assay. Particulars: Trichosporon asahii, 1188, 24 h.
Assay [8] deals with Candida albicans. The assay is described as follows: Antifungal activity against Candida albicans ATCC 44859 after 48 hrs by broth microdilution assay. Conditions: Candida albicans, ATCC 44859, 48 h.
The subject of assay [9] is Aspergillus fumigatus. Put plainly: Antifungal activity against Aspergillus fumigatus 231 after 24 hrs by broth microdilution assay. Conditions: Aspergillus fumigatus, 231, 24 h.
Assay [10] relates to Trichophyton mentagrophytes. Put plainly: Antifungal activity against Trichophyton mentagrophytes 445 after 120 hrs by broth microdilution assay. Conditions: Trichophyton mentagrophytes, 445, 120 h.
Assay [11] relates to Lichtheimia corymbifera. The assay is described as follows: Antifungal activity against Absidia corymbifera 272 after 24 hrs by broth microdilution assay. Conditions: Lichtheimia corymbifera, 272, 24 h.
The test system of assay [12] is Trichophyton mentagrophytes. The assay is described as follows: Antifungal activity against Trichophyton mentagrophytes 445 after 72 hrs by broth microdilution assay. Conditions: Trichophyton mentagrophytes, 445, 72 h.
Assay [13] relates to Lichtheimia corymbifera. Put plainly: Antifungal activity against Absidia corymbifera 272 after 48 hrs by broth microdilution assay. Conditions: Lichtheimia corymbifera, 272, 48 h.
Assay [14] relates to Nakaseomyces glabratus. The assay is described as follows: Antifungal activity against Candida glabrata 20/I after 48 hrs by broth microdilution assay. Particulars: Nakaseomyces glabratus, 20/I, 48 h.
The test system of assay [15] is Candida tropicalis. Put plainly: Antifungal activity against Candida tropicalis 159 after 24 hrs by broth microdilution assay. Conditions: Candida tropicalis, 159, 24 h.
The test system of assay [16] is Trichosporon asahii. Put plainly: Antifungal activity against Trichosporon asahii 1188 after 48 hrs by broth microdilution assay. Particulars: Trichosporon asahii, 1188, 48 h.

Converted amounts (≈) assume the structure as drawn. Bounds are passed on as bounds.

One may read the MIC as the least concentration at which growth counts as inhibited. Read a low MIC as greater potency. On to `Oc1ccc(Br)cc1C(=S)NCc1ccc(Cl)c(Cl)c1`, for which the MIC was 7.81 µM (≈ 3.05 µg/mL) with Pichia kudriavzevii [1]; 31.2 µM (≈ 12.2 µg/mL) in the assay on Candida tropicalis [2]; 31.2 µM (≈ 12.2 µg/mL) against Nakaseomyces glabratus [3]; 15.6 µM (≈ 6.11 µg/mL) in the assay on Pichia kudriavzevii [4]; 15.6 µM (≈ 6.11 µg/mL) against Candida albicans [5]; 7.81 µM (≈ 3.05 µg/mL) against Aspergillus fumigatus [6]. In addition, the MIC in the assay with Trichosporon asahii [7] was 3.9 µM (≈ 1.53 µg/mL); against Candida albicans [8], 31.2 µM (≈ 12.2 µg/mL); against Aspergillus fumigatus [9] it was 7.81 µM (≈ 3.05 µg/mL); in [10], 0.98 µM (≈ 0.383 µg/mL); in the assay with Lichtheimia corymbifera [11], 3.9 µM (≈ 1.53 µg/mL); in assay [12], 0.98 µM (≈ 0.383 µg/mL). The MIC against Lichtheimia corymbifera [13] is 3.9 µM (≈ 1.53 µg/mL); in the assay with Nakaseomyces glabratus [14] it was 62.5 µM (≈ 24.4 µg/mL); with Candida tropicalis [15] it was 31.2 µM (≈ 12.2 µg/mL); against Trichosporon asahii [16], 7.81 µM (≈ 3.05 µg/mL).
Regarding `COc1ccc(C(=S)NCc2ccccc2)c(O)c1`, the MIC came out at 250 µM (≈ 68.3 µg/mL) against Pichia kudriavzevii [1]; 250 µM (≈ 68.3 µg/mL) with Candida tropicalis [2]; 500 µM (≈ 137 µg/mL) against Nakaseomyces glabratus [3]; 250 µM (≈ 68.3 µg/mL) against Pichia kudriavzevii [4]; 62.5 µM (≈ 17.1 µg/mL) in the assay with Candida albicans [5]; 500 µM (≈ 137 µg/mL) against Aspergillus fumigatus [6]. Also, the MIC turned out to be 250 µM (≈ 68.3 µg/mL) in the assay on Trichosporon asahii [7]; 250 µM (≈ 68.3 µg/mL) against Candida albicans [8]; 250 µM (≈ 68.3 µg/mL) in the assay with Aspergillus fumigatus [9]; 62.5 µM (≈ 17.1 µg/mL) in [10]; 62.5 µM (≈ 17.1 µg/mL) in the assay with Lichtheimia corymbifera [11]; 62.5 µM (≈ 17.1 µg/mL) in [12]. Moreover, the minimal inhibitory concentration (MIC) with Lichtheimia corymbifera [13] was determined as 250 µM (≈ 68.3 µg/mL); in the assay with Nakaseomyces glabratus [14] it was 500 µM (≈ 137 µg/mL); in the assay with Candida tropicalis [15] it was 250 µM (≈ 68.3 µg/mL); with Trichosporon asahii [16], 250 µM (≈ 68.3 µg/mL).
Take `Cc1cccc(C(=S)NCc2ccc(Cl)cc2)c1O`: the MIC was greater than 500 µM against Pichia kudriavzevii [1]; 250 µM (≈ 73 µg/mL) with Candida tropicalis [2]; greater than 500 µM with Nakaseomyces glabratus [3]; greater than 500 µM against Pichia kudriavzevii [4]; 62.5 µM (≈ 18.2 µg/mL) against Candida albicans [5]; 125 µM (≈ 36.5 µg/mL) against Aspergillus fumigatus [6]. In addition, the MIC worked out at 62.5 µM (≈ 18.2 µg/mL) in the assay with Trichosporon asahii [7]; 125 µM (≈ 36.5 µg/mL) in the assay on Candida albicans [8]; 62.5 µM (≈ 18.2 µg/mL) against Aspergillus fumigatus [9]; 15.6 µM (≈ 4.56 µg/mL) in assay [10]; 31.2 µM (≈ 9.12 µg/mL) against Lichtheimia corymbifera [11]; 15.6 µM (≈ 4.56 µg/mL) in assay [12]. Besides, the MIC in the assay on Lichtheimia corymbifera [13] was 31.2 µM (≈ 9.12 µg/mL); against Nakaseomyces glabratus [14] it was greater than 500 µM; in the assay on Candida tropicalis [15], 125 µM (≈ 36.5 µg/mL); with Trichosporon asahii [16], 62.5 µM (≈ 18.2 µg/mL).
Consider `Cc1ccc(CNC(=S)c2ccc(C)cc2O)cc1`, for which the MIC amounted to 62.5 µM (≈ 17 µg/mL) in the assay with Pichia kudriavzevii [1]; 500 µM (≈ 136 µg/mL) in the assay on Candida tropicalis [2]; 125 µM (≈ 33.9 µg/mL) with Nakaseomyces glabratus [3]; 125 µM (≈ 33.9 µg/mL) in the assay on Pichia kudriavzevii [4]; 125 µM (≈ 33.9 µg/mL) with Candida albicans [5]; 500 µM (≈ 136 µg/mL) against Aspergillus fumigatus [6]. Further, the MIC with Trichosporon asahii [7] was 31.2 µM (≈ 8.48 µg/mL); against Candida albicans [8], 250 µM (≈ 67.8 µg/mL); against Aspergillus fumigatus [9], 125 µM (≈ 33.9 µg/mL); in [10], 15.6 µM (≈ 4.24 µg/mL); in the assay on Lichtheimia corymbifera [11] it was 7.81 µM (≈ 2.12 µg/mL); in assay [12], 15.6 µM (≈ 4.24 µg/mL). Besides, the minimum inhibitory concentration (MIC) in the assay on Lichtheimia corymbifera [13] worked out at 31.2 µM (≈ 8.48 µg/mL); with Nakaseomyces glabratus [14] it was 500 µM (≈ 136 µg/mL); in the assay with Candida tropicalis [15] it was 125 µM (≈ 33.9 µg/mL); with Trichosporon asahii [16] it was 62.5 µM (≈ 17 µg/mL).
For `Oc1ccccc1C(=S)NCc1ccc(Cl)c(Cl)c1`, the MIC in the assay on Pichia kudriavzevii [1] stood at 15.6 µM (≈ 4.88 µg/mL); against Candida tropicalis [2], 31.2 µM (≈ 9.76 µg/mL); with Nakaseomyces glabratus [3], 31.2 µM (≈ 9.76 µg/mL); against Pichia kudriavzevii [4], 31.2 µM (≈ 9.76 µg/mL); against Candida albicans [5] it was 15.6 µM (≈ 4.88 µg/mL); against Aspergillus fumigatus [6], 31.2 µM (≈ 9.76 µg/mL). Also, the MIC in the assay on Trichosporon asahii [7] stood at 15.6 µM (≈ 4.88 µg/mL); against Candida albicans [8], 31.2 µM (≈ 9.76 µg/mL); against Aspergillus fumigatus [9] it was 15.6 µM (≈ 4.88 µg/mL); in [10], 15.6 µM (≈ 4.88 µg/mL); in the assay with Lichtheimia corymbifera [11], 7.81 µM (≈ 2.44 µg/mL); in assay [12] it was 7.81 µM (≈ 2.44 µg/mL). Besides, the minimal inhibitory concentration (MIC) against Lichtheimia corymbifera [13] turned out to be 15.6 µM (≈ 4.88 µg/mL); against Nakaseomyces glabratus [14] it was 31.2 µM (≈ 9.76 µg/mL); in the assay on Candida tropicalis [15] it was 31.2 µM (≈ 9.76 µg/mL); with Trichosporon asahii [16], 15.6 µM (≈ 4.88 µg/mL).
With `Oc1ccc(Br)cc1C(=S)NCc1cccc(Br)c1`, the MIC against Pichia kudriavzevii [1] amounted to 3.9 µM (≈ 1.56 µg/mL); in the assay with Candida tropicalis [2], 62.5 µM (≈ 25.1 µg/mL); in the assay on Nakaseomyces glabratus [3] it was 7.81 µM (≈ 3.13 µg/mL); in the assay on Pichia kudriavzevii [4], 7.81 µM (≈ 3.13 µg/mL); against Candida albicans [5], 15.6 µM (≈ 6.27 µg/mL); against Aspergillus fumigatus [6] it was 15.6 µM (≈ 6.27 µg/mL). The MIC against Trichosporon asahii [7] came to 15.6 µM (≈ 6.27 µg/mL); in the assay with Candida albicans [8] it was 31.2 µM (≈ 12.5 µg/mL); against Aspergillus fumigatus [9] it was 7.81 µM (≈ 3.13 µg/mL); in assay [10] it was 1.95 µM (≈ 0.782 µg/mL); against Lichtheimia corymbifera [11], 3.9 µM (≈ 1.56 µg/mL); in assay [12], 1.95 µM (≈ 0.782 µg/mL). The MIC came to 3.9 µM (≈ 1.56 µg/mL) against Lichtheimia corymbifera [13], 31.2 µM (≈ 12.5 µg/mL) in the assay on Nakaseomyces glabratus [14], 15.6 µM (≈ 6.27 µg/mL) against Candida tropicalis [15] and 31.2 µM (≈ 12.5 µg/mL) with Trichosporon asahii [16].
